According to patent US20260335272A1, “SAGERINIC ACID AND COMPOSITIONS CONTAINING SAME, FOR USE IN THE PREVENTION AND/OR TREATMENT OF SENESCENCE-RELATED DISORDERS IN A HUMAN OR ANIMAL” (A2P SCIENCES, priority 2022, published 2026):

Experiments:
SIRT1 = target: T1, SIRT1 (Homo sapiens, UniProt Q96EB6); assay: SIRT1 Inhibitor/Activator screening kit (ab283377), fluorimetric sirtuin-1 activation; assay type: biochemical; settings: for Activity (activation of sirtuin-1): 2.28% (w/V) activator in DMSO diluted 1:250 in DTT buffer, 25 μl, 37 °C, 30-60 min, Ex/Em=400/505 nm
T1 construct: fluorogenic deacetylation assay
T1 sequence (Q96EB6 1-747): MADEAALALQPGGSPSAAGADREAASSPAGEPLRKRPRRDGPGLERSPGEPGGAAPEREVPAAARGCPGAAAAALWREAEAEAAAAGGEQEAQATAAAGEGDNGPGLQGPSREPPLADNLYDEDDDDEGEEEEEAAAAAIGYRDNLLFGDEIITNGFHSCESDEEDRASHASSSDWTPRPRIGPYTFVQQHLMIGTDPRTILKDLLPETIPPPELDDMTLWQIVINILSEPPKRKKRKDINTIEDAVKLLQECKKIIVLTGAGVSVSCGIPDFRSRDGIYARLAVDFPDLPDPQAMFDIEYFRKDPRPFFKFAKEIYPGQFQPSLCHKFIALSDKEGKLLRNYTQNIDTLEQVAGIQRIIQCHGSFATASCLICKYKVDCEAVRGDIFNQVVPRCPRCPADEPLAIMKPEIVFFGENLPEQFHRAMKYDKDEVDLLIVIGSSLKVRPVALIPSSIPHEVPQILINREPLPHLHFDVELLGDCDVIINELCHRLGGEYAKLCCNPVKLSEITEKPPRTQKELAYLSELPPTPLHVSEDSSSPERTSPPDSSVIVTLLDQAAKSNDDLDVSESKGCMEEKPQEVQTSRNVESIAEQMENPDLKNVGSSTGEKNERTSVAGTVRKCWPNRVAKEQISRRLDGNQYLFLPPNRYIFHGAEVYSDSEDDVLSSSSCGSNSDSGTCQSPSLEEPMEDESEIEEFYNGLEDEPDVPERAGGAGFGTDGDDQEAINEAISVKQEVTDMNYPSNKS
From the text: The SIRT1 Inhibitor/Activator screening kit deacetylates the substrate with SIRT1, followed by cleavage of the deacetylated substrate to release the fluorescent group, which is detected by fluorimetry at Ex/Em=400/505 nm.
The SIRT1 activator enhances the SIRT1 activity resulting in a higher fluorescent signal compared to the control. This kit provides a rapid, simple, sensitive and reliable test, suitable for high-throughput screening of SIRT1 activators.
• Solutions of the kit: Reference ab283377 (Abeam) • Buffer • Substrate • SIRT1 • NAD • DTT • DMSO Réference 34869 (Honeywell Riedel-de-Haen)
A solution of exactly 2.28% (w/V) activator (resveratrol (Sigma Aldrich, ref.R5010) and sagerinic acid prepared according to example 5.1.) is made in DMSO. Dilute to 1:250 in the DTT buffer solution.
Preparation of the enzyme solution: Make the following additions to 3 separate wells:
• 1. To the SIRT1 enzyme solution wells, add: • 25 μl of undiluted activator solution (2.28% solution) in a well as activator control (AC) • 25 μl of DTT-free buffer in a well as an enzyme control (EC) • 25 μl of diluted activator solution as assay (S) • 2. In another well, add 50 μl of DTT-free buffer as a blank control (without enzyme). • 3. Mix well and incubate the plaque for 5 minutes at 37 °C
Preparation of the substrate: After incubation, make the following additions to each well:
Mix and incubate at 37 °C for 30-60 min.
Mix well and incubate for 10 min at 37 °C, protected from light.
Read the fluorescence (Ex/Em=400/505 nm).
The activation of sirtuin-1 by sagerinic acid was compared with that of resveratrol as a reference molecule.

[1] = DPPH free radical elimination (anti-radical / oxidative stress effect); assay type: physicochemical; settings: for Activity (elimination of DPPH free radical): antioxidant solution 0.0007% (ascorbic acid in ethyl alcohol, sagerinic acid in water), 0.15 ml in 4.5 ml, phosphate buffer pH 7, 5 min, OD at 519 nm
Description: The principle of the method for assessing the effect of sagerinic acid compared to ascorbic acid as a reference molecule is based on the elimination of a stable free radical, the 2,2-Diphenyl-1-picrylhydrazyl (DPPH Sigma Aldrich ref D9132).
Dissolve 0.177 g monopotassium phosphate and 0.730 g dibasic sodium phosphate dihydrate in 50 ml purified water. The pH is adjusted if necessary.
A solution of exactly 0.0027% (w/V) DPPH in methanol is made.
A solution of exactly 0.1% (w/V) ascorbic acid (Riedel-de-Haen, ref.33034) is made in ethyl alcohol. This solution is diluted to 0.0007% (V/V) in ethyl alcohol.
A solution of exactly 0.1% (w/V) sagerinic acid (prepared according to example 5.1.) is made in water. This solution is diluted to 0.0007% (V/V) in water.
(§1) A series of hermetically sealed pillboxes are filled with:
For the sample and the blank: • After addition, stir for 5 min on a magnetic stirrer • Add 4 ml toluene • Stir for 30 seconds with a magnetic stirrer • Allow to settle for 20 seconds to 1 minute (if necessary) • Recover the organic phase from the top using an automatic pipette, taking care not to recover any aqueous phase • Read the OD of the organic phase using a spectrophotometer at 519 nm

[2] = Protein deglycating activity: release of benzoic acid from 1-phenyl-1,2-propanedione (PPD), HPLC; settings: for Activity (protein deglycating activity): 0.25% (w/V) product, 0.375% (w/V) PPD, 37 °C, 24 hours, phosphate buffer pH 7.4-methanol 50/50, benzoic acid by HPLC at 229 nm
Description: The test products in 0.25% (w/V) solution are left in contact with a 0.375% (w/V) solution of 1-phenyl-1,2-propanedione (PPD) for 24 hours at 37 °C. An HPLC dosing, at 229 nm after passage through an Ascentis® Express C18 column, was carried out at TO and again after 24 hours so as to determine the benzoic acid content. Calculating the percentage of pmol of benzoic acid/μmol of PPD in the reaction medium determines the activity of the deglycants.
Dissolve 0.178 g monopotassium phosphate and 0.955 g dibasic sodium phosphate dihydrate in 100 ml purified water. The pH is adjusted if necessary.
A mixture is made with 50 ml phosphate buffer pH 7.4 and 50 ml methanol.
A solution of exactly 0.375% (w/V) PPD is made in the mixture buffer phosphate pH 7.4—methanol (50/50).
A solution of approximately 0.25% (w/V) of the product to be tested is made in the mixture buffer phosphate pH 7.4—methanol (50/50).
Product to be tested: Alagebrium chloride (MedChem Express, ref. HY-106024B), Sagerinic acid (prepared according to example 5.1.).
A stock solution of approximately 0.08% (w/V) benzoic acid is made in ethyl alcohol. This solution is diluted 1:10 (V/V) in purified water (D).
(D) is then diluted 1:5, 2:5, 3:5 and 4:5 (V/V) in purified water. (D1, D2, D3 and D4).
A linear calibration line was established: area of the benzoic acid peak, with a retention time of 9.17 min and observed at 229 nm, as a function of the concentration in % (w/V).
as §1
Stir after each addition.
0.05 ml is taken from each pillbox to measure the benzoic acid content at TO. The pillboxes are resealed and placed in an oven at 37 °C for a minimum of 21 to a maximum of 24 hours.
The same volume will be taken for dosing on leaving the oven.
The time at 37 °C must be exactly the same for the control and all the tests, so they are prepared as they go along.
The 0.05 ml samples are diluted 1:5 (V/V) in purified water, i.e. by adding 0.2 ml. […]
The % of pmol of benzoic acid/μmol of PPD in the reaction medium is calculated: • TT0×10000×100/122.12×12.655 […]

Collagenase = Collagenase activity kit (Sigma Aldrich MAK293, FALGPA substrate), anti-collagenase activity; assay type: biochemical; settings: vs reference molecule hamamelitannin
Description: A collagenase activity analysis kit (Sigma Aldrich MAK293) is used. The kit allows to screen collagenase inhibitors by measuring collagenase activity using a synthetic peptide (FALGPA) that mimics the structure of the collagen.
• Solutions of the kit: Reference MAK293-1KT (Sigma Aldrich) • Collagenase buffer (MAK293A-KC) • Collagenase solution (MAK293B-KC) • Collagenase substrate (MAK293C-KC) • Pharmethyl 96° ethyl alcohol, Reference 11371014 (Cristalco) • Purified water
A solution is made of exactly 1% (w/V) hamamelitannin (Extrasynthesis ref. 0958) in ethyl alcohol.
A solution of exactly 1% (w/V) sagerinic acid (prepared according to example 5.1.) is made in purified water.
as §1
• After addition, stir quickly by hand • Place in an oven at 37 °C for 30 minutes • Add 1.6 mL of purified water. Mix well. • Read the DO: Sample against blank, spectrophotometer at 345 nm.
The anti-collagenase activity of sagerinic acid was compared with that of hamamelitannin as a reference molecule.
In absolute values: Y=[(DOBlank 2−DOTest)−(DOBlank 1−DOcontrol)]/(DOBlank 1−DOcontrol)]×100

| Structure (SMILES) | Activity (activation of sirtuin-1) (SIRT1) | Activity (elimination of DPPH free radical) [1] | effect in eliminating free radicals relative to ascorbic acid ([1]; vs ascorbic acid) | protein deglycating activity (in words) [2] | Activity (protein deglycating activity) [2] | effect on sirtuin activation (in words) (SIRT1) | inhibitory effect on proteases (collagenases) relative to hamamelitannin (Collagenase) |
| --- | --- | --- | --- | --- | --- | --- | --- |
| Oc1ccc(C=Cc2cc(O)cc(O)c2)cc1 [Resveratrol, resveratrol, reference compound] | 80.54 arbitrary dimensionless unit |  |  |  |  |  |  |
| O=C1O[C@H]([C@@H](O)CO)C(O)=C1O [Ascorbic acid, ascorbic acid, reference compound] |  | 5.26 arbitrary dimensionless unit |  |  |  |  |  |
| O=C(O[C@H](Cc1ccc(O)c(O)c1)C(=O)O)C1C(c2ccc(O)c(O)c2)C(C(=O)O[C@H](Cc2ccc(O)c(O)c2)C(=O)O)C1c1ccc(O)c(O)c1 (stereo partly shown) [Sagerinic acid] | 26.56 arbitrary dimensionless unit | 9.70 arbitrary dimensionless unit | almost twice the effect of ascorbic acid | good protein deglycating activity | 16.78 arbitrary dimensionless unit | good effect on sirtuin activation | more than 2 times |
| Cc1sc[n+](CC(=O)c2ccccc2)c1C [Alagebrium, reference compound] |  |  |  |  | 28.79 arbitrary dimensionless unit |  |  |
